# Results: US7897569B2, “Use of HMGB fragments as anti-inflammatory agents” (The Feinstein Institute for Medical Research, priority 2001, dated 2011)
# Ends that are not written are not given here.
# B1: carboxyl-truncated HMGB1: Human HMGB1 mutant in which the carboxy terminus was deleted, SEQ ID NO:19 (protein)
# chain: MGKGDPKKPTGKMSSYAFFVQTCREEHKKKHPDASVNFSEFSKKCSERWKTMSAKEKGKFEDMAKADKARYEREMKTYIPPKGETKKKFKDPNAPKRLPSAFFLFCSEYRPKIKGEHPGLSIGDVAKKLGEMWNNTAADDKQPYEKKAAKLKEKYEKDIAAYRAKGKPDAAKKGVVKAEKSK
# System: RAW 264.7 cells
# Assay: TNF release from RAW 264.7 cells (L929 cytotoxicity bioassay)
# Type: cell-based, murine
# Conditions: for TNF release by synthetic peptide fragment of B box: no polymyxin B
# Method: Murine macrophage-like RAW 264.7 cells (American Type Culture Collection, Rockville, Md.) were cultured in RPMI 1640 medium (Life Technologies, Grand Island N.Y.) supplemented with 10% fetal bovine serum (Gemini, Catabasas, Calif.), penicillin and streptomycin (Life Technologies) and were used at 90% confluence in serum-free Opti-MEM I medium (Life Technologies, Grand Island, N.Y.). […] Polymyxin B was not used in experiments of synthetic peptide studies.
# TNF release was measured by a standard murine fibroblast L929 (ATCC, American Type Culture Collection, Rockville, Md.) cytotoxicity bioassay (Bianchi et al., Journal of Experimental Medicine 183:927-936, 1996) with the minimum detectable concentration of 30 pg/ml. Recombinant mouse TNF was obtained from R&D system Inc., (Minneapolis, Minn.). Murine fibroblast L929 cells (ATCC) were cultured in DMEM (Life Technologies, Grand Island, N.Y.) supplemented with 10% fetal bovine serum (Gemini, Catabasas, Calif.), penicillin (50 units/ml) and streptomycin (50 μg/ml) (Life Technologies) in a humidified incubator with 5% CO2.
# The effect of the mutants on TNF release from Murine macrophage-like RAW 264.7 cells (ATCC) was carried out as follows. RAW 264.7 cells were cultured in RPMI 1640 medium (Life Technologies, Grand Island N.Y.) supplemented with 10% fetal bovine serum (Gemini, Catabasas, Calif.), penicillin and streptomycin (Life Technologies). Polymyxin (Sigma, St. Louis, Mo.) was added at 100 units/ml to suppress the activity of any contaminating LPS. Cells were incubated with 1 μg/ml of full length (wild-type) HMGB1 and each HMGB1 mutant protein in Opti-MEM I medium for 8 hours, and conditioned supernatants (containing TNF which had been released from the cells) were collected and TNF released from the cells was measured by a standard murine fibroblast L929 (ATCC) cytotoxicity bioassay (Bianchi et al., supra) with the minimum detectable concentration of 30 pg/ml. Recombinant mouse TNF was obtained from R & D Systems Inc., (Minneapolis, Minn.) and used as control in these experiments. Data in FIG. 1 are all presented as mean+SEM unless otherwise indicated. (N=6-10).
# To further examine the effect of HMGB1 B box on cytokine production, varying amounts of HMGB1 B box were evaluated for the effects on TNF, IL-1 B, and IL-6 production in murine macrophage-like RAW 264.7 cells. Conditioned media were harvested and measured for TNF, IL-1β and IL-6 levels. TNF levels were measured as described herein, and IL-1β and IL-6 levels were measured using the mouse IL-1β and IL-6 enzyme-linked immunosorbent assay (ELISA) kits (R&D System Inc., Minneapolis, Minn.) and N>5 for all experiments.
# The kinetics of B box-induced TNF release was also examined. TNF release and TNF mRNA expression was measured in RAW 264.7 cells induced by B box polypeptide or GST tag polypeptide only used as a control (vector) (10 μg/ml) for 0 to 48 hours. Supernatants were analyzed for TNF protein levels by an L929 cytotoxicity assay (N=3-5) as described herein. For mRNA measurement, cells were plated in 100 mm plate and treated in Opti-MEM I medium containing B box polypeptide or the vector alone for 0, 4, 8, or 24 hours, as indicated in FIG. 2D. The vector only sample was assayed at the 4 hour time point. Cells were scraped off the plate and total RNA was isolated by RNAzol B method in accordance with the manufacturer's instructions (Tel-Test “B”, Inc., Friendswood, Tex.). TNF (287 bp) was measured by RNase protection assay (Ambion, Austin, Tex.). Equal loading and the integrity of RNA was verified by ethidium bromide staining of the RNA sample on agarose-formaldehyde gel. […] TNF mRNA expression was maximal at 4 hours and decreased at 8 and 24 hours. […] A similar study was carried out measuring TNF protein released from RAW 264.7 cells 0, 4, 8, 24, 32 or 48 hours after administration of B box or vector only (GST tag), using the L929 cytotoxicity assay described herein. […] Data are representative of three separate experiments. […]
Molecule,"TNF release by synthetic peptide fragment of B box (peptide 10 μg/ml, 10 hours)","TNF stimulating activity relative to full length B box and HMGB1 (peptide 10 μg/ml, 10 hours)","TNF release (1 μg/ml protein, 8 hours, RAW 264.7 cells)"
"16-25: Synthetic peptide fragment, amino acids 16-25 of the HMGB1 B box (SEQ ID NO:20) (LFCSEYRPKI)",did not induce TNF release,–,–
"30-49: Synthetic peptide fragment, amino acids 30-49 of the HMGB1 B box (SEQ ID NO:20) (PGLSIGDVAKKLGEMWNNTA)",did not induce TNF release,–,–
"45-64: Synthetic peptide fragment, amino acids 45-64 of the HMGB1 B box (SEQ ID NO:20) (WNNTAADDKQPYEKKAAKLK)",did not induce TNF release,–,–
"60-74: Synthetic peptide fragment, amino acids 60-74 of the HMGB1 B box (SEQ ID NO:20) (AAKLKEKYEKDIAAY)",did not induce TNF release,–,–
fkdpnapkrlpsafflfcse (FKDPNAPKRLPSAFFLFCSE; not fully specified; printed as fkdpnapkrlpsafflfcse) [1-20-mer],TNF-stimulating activity was retained,"less potent than either the full length synthetic B box (1-74-mer), or full length HMGB1",–
B1,–,–,significantly stimulated TNF release
